Tests used:
MDA-MB-231 cancer cells = experiment: Cell viability (MTT) assay, MDA-MB-231; type: cell-based; settings: Homo sapiens; inhibiting the growth of MDA-MB-231 cancer cells, cell viability assay (Table 6)
Method: Cell viability was analyzed by using a colorimetric 3-(4,5-dimethylthiazol-[…]2-yl)-2,5-diphenyletetrazolium Bromide (MTT) assay that determines mitochondrial dehydrogenase activities in the living cells with a colorimetric method. Cells treated with test compounds were incubated with MTT and their effect on the viability of the cells was assayed by the ability of treated cells to reduce the yellow tetrazolium dye MTT to its insoluble formazan, which has a purple color. […]

[1] = system: breast cancer cell lines (MDA-MB-231, BT549, HCC 1937, ZR-75-1, T47D, MCF-7); experiment: Cell viability (MTT) in various breast cancer cell lines; type: cell-based; settings: 24 hours, FIG. 1E; regardless of hormone dependency
Method: (§1) Cell viability was analyzed by using a colorimetric 3-(4,5-dimethylthiazol-[…]2-yl)-2,5-diphenyletetrazolium Bromide (MTT) assay that determines mitochondrial dehydrogenase activities in the living cells with a colorimetric method. Cells treated with test compounds were incubated with MTT and their effect on the viability of the cells was assayed by the ability of treated cells to reduce the yellow tetrazolium dye MTT to its insoluble formazan, which has a purple color.
Compound 1 was effective in various breast cancer cell lines analyzed regardless of its hormone dependency, including MDA-MB-231 cells, BT549 cells, HCC 1937 cells, ZR-75-1 cells, T47D cells, and MCF-7 cells (FIG. 1E).

HeLa cells = experiment: PARP cleavage assay (Western blotting), HeLa; type: cell-based; settings: 6 hours
Text: (§2) Compound 1a had no effect under the same conditions (FIG. 1A). […] Compound 1a, 28a, 47a, 48a, 73a, 39a, 70a, 103a, 89a and 88a had no effect under the same conditions (FIG. 3B-C).

MDA-MB-231 cells = experiment: PARP cleavage assay (Western blotting), MDA-MB-231; type: cell-based; settings: 0.5 μM, 6 hours
Text: as §2

HCT116 cells = experiment: DAPI staining for apoptosis, HCT116; type: cell-based; settings: 0.5 μM, 6 hours, counted in 200 cells
Method: In HCT116 cells, about 80% apoptotic cells were detected when cells were treated with Compound 1 compared to less than 5% when cells were not treated with Compound 1. Apoptotic cells were counted in 200 cells.

Nur77−/−MEFs = experiment: Cell viability (MTT), Nur77-/- MEFs; type: cell-based, mouse; settings: 6 hours, MTT (FIG. 8)
Method: as §1
The apoptotic effect of Compound 1 was examined in mouse embryonic fibroblast (MEF) and MEF lacking Nur77 (Nur77^−/−MEF). […] Induction of PARP cleavage (as performed in Example A-7) in MEFs by Compound 1 at 0.5 μM was also attenuated in Nur77^−/−MEFs.

MEFs = experiment: DAPI staining for apoptosis, MEFs; type: cell-based, mouse; settings: 0.5 μM
Text: (§3) The apoptotic effect of Compound 1 was also examined in mouse embryonic fibroblast (MEF) and MEF lacking Bcl-2 (Bcl-2^−/−MEF). […] Apoptotic cells were counted in 200 cells.

Bcl-2−/−MEF cells = experiment: DAPI staining for apoptosis, Bcl-2-/- MEFs; type: cell-based, mouse; settings: 0.5 μM
Text: as §3

Bcl-2−/−HeLa cells = experiment: Mitochondrial membrane potential (JC1), Bcl-2-/- cells of the MEF study; type: cell-based; settings: Bcl-2−/−HeLa cells as printed, 0.5 μM, 6 h
Method: Loss of mitochondrial membrane potential (Avm) represents one of the hallmarks of apoptosis. A JC-1 probe was employed to measure mitochondrial depolarization in cancer cells. MDA-MB-231 breast cancer cells were treated with different concentration of test compounds for 6 hours. JC-1 staining solution (5 μg/ml) was added at 37° C. for 20 min. After washing with PBS twice, mitochondrial membrane potentials were monitored by determining the relative amounts of dual emission from a multiple fluorescence reader. The fluorescence in cells was quantitatively analyzed by flow cytometry. Mitochondrial depolarization is depicted by an increase in the green/red fluorescence intensity ratio. ROS were monitored with the oxiadtion-senstive fluorescent probe 2′7′-dichlorodihydroflurescenin diacetate (DCF-DA).
In addition, Bcl-2^−/−MEF cells were more resistant than the parental MEF cells to Compound 1 in its induction of the mitochondrial membrane potential loss measured by JC1 staining and in the release of mitochondrial ROS (as performed in Example A-12).

Nur77−/−HeLa cells = experiment: Annexin V/PI staining, Nur77 knockout HeLa; type: cell-based
Method: Knocking out Nur77 and Bcl-2 from HeLa cells employed the CRISPR/Cas9 system. gRNA targeting sequence of Nur77 (5′-[…]-3′) and Bcl-2 (5′-[…]-3′) was cloned into gRNA cloning vector Px330 (Addgene, 71707) and confirmed by sequencing. To screen for cells lacking Nur77 or Bcl-2, HeLa cells were transfected with control vector and gRNA expression vectors, followed by G418 selection (0.5mg/m1). Single colonies were subjected to Western blotting using anti-Nur77 and anti-Bcl-2 antibody to select knockout cells.
The apoptotic effect of Compound lwas also evaluated in Nur77 genome knockout HeLa cells generated by CRISPR/Cas9 technology (Example A-5).

[2] = system: non-transfected HEK293T cells; experiment: Apoptosis in non-transfected HEK293T cells (confocal microscopy); type: cell-based
Text: The ligand-binding domain (LBD) of Nur77, Nur77-LBD, was transfected into HEK293T cells. Transfection of Nur77-LBD enhanced the apoptotic effect of Compound 1, with 36% of the transfected HEK293T cells undergoing apoptosis, while 4.5% of the non-transfected cells were apoptotic, as measured by confocal microscopy.

Nur77-LBD = target: T1, Nur77-LBD (Homo sapiens, UniProt P22736); experiment: Surface plasmon resonance (SPR) binding to Nur77-LBD; settings: Nur77-LBD protein, 25° C.
T1 construct: Protein spectra of purified Nur77-LBD at temperature 50° C. and above changed substantially; His (N); made in house
Method: The binding kinetics between Nur77-LBD and test compounds was analyzed at 25° C. on a BlAcore T200 machine with CMS chips (GE Healthcare). PBSP was used for all measurements. For SPR measurements, Nur77-LBD proteins were purified. A blank channel was used as negative control. About 10,000 response units of Nur77-LBD were immobilized on the chips. When the data collection was finished in each cycle, the sensor surface was regenerated with Glycine-HCl 2.5. A serial of concentrations ranging from 0.15 to 5.0 μM were designed for the experiment. Sensograms were fit globally with BIAcore T200 analysis using 1:1 Langumuir binding mode.

T1 sequence (P22736 360-595 limits assumed): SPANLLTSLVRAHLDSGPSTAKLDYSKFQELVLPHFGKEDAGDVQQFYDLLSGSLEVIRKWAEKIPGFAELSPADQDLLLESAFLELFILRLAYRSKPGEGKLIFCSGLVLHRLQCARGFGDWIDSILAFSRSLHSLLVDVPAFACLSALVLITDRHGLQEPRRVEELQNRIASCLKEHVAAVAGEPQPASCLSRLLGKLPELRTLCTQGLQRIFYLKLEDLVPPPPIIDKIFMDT

IC50 (MDA-MB-231 cancer cells): < 500 nM | Kd (Nur77-LBD): 100 nM
SMILES: FC(F)(F)c1ccc([C+](c2c[nH]c3ccccc23)c2c[nH]c3ccccc23)cc1 [Compound 1, Bis(1H-indol-3-yl)(4-(trifluoromethyl)phenyl)methylium methanesulfonate]
cell viability (MTT) [1]: effective | concentration inducing PARP cleavage (dose dependent study) (HeLa cells): submicromolar concentrations | PARP cleavage (MDA-MB-231 cells): effectively induced PARP cleavage | apoptotic cells (DAPI staining) (HCT116 cells): about 80% | growth inhibitory effect relative to MEFs (Nur77−/−MEFs): significantly diminished | cells with chromatin condensation and nuclear fragmentation (DAPI) (MEFs): 40% | cells with chromatin condensation and nuclear fragmentation (DAPI) (Bcl-2−/−MEF cells): 14% | JC1 green to red ratio (control 100%) (Bcl-2−/−HeLa cells): 150% | apoptotic effect (Annexin V/PI staining) (Nur77−/−HeLa cells): 3.25% | apoptotic cells [2]: 4.5%

— patent publication US20210024499A1, “OXIDIZED BIS(3-INDOLYL)METHANES AND USES THEREOF” (Sanford Burnam Prebys Medical Discovery Institute, priority 2018, published 2021)
